In one test the test system is HCC827-OR16. The experiment in a line: qRT-PCR expression of p21. The following applies: HCC827-OR16, 24 h, q-RT-PCR. The test is classed as cell-based, human. The procedure: FIG. 10 depicts the effect of Reno647 on expressions of Caspase 3, Caspase 9 and p21 in HCC827-P and on Box, Bcl2, p53 and p21 in HCC827-OR16 cells. […] Total cellular RNA was extracted and cDNA was prepared followed by qRT-PCR using specific probes as described in the section of Materials and Methods. Tgene ΔCt value was normalized for GAPDH by calculating ΔCt=Ctgene−CtGAPDH per sample.
HCC827 P or other indicated cells at exponential growth phase were treated with indicated concentrations of compounds for 24 hours. Total cellular RNA was prepared from lysed tumor cells using an RNA Purification kit (ThermoFisher Scientific). The first-strand of cDNA was synthesized using a High Capacity cDNA reverse transcription kit (ThermoFisher Scientific) in PTC-100 Peltier Thermal Cycler PCR. The resultant cDNA (0.5-1 μL) was used in a 10 μl reaction by using Taqman Universal PCR Master Mix (ThermoFisher Scientific). The pre-designed primers and probe were purchased from Life Technologies and used for qPCR. Human GAPDH was used as an internal control. qPCR was performed using Applied Biosystems StepOne and StepOnePlus Real-Time PCR Systems according manufacturer's instructions. An initial PCR denaturation step was performed at 95° C. for 20 seconds. […]

The target in the next test is T1, ALK (Homo sapiens, UniProt Q9UM73).
T1 construct: made in house; host or cells: cell-free system (rabbit reticulocyte lysate)
T1 sequence (Q9UM73 19-1620): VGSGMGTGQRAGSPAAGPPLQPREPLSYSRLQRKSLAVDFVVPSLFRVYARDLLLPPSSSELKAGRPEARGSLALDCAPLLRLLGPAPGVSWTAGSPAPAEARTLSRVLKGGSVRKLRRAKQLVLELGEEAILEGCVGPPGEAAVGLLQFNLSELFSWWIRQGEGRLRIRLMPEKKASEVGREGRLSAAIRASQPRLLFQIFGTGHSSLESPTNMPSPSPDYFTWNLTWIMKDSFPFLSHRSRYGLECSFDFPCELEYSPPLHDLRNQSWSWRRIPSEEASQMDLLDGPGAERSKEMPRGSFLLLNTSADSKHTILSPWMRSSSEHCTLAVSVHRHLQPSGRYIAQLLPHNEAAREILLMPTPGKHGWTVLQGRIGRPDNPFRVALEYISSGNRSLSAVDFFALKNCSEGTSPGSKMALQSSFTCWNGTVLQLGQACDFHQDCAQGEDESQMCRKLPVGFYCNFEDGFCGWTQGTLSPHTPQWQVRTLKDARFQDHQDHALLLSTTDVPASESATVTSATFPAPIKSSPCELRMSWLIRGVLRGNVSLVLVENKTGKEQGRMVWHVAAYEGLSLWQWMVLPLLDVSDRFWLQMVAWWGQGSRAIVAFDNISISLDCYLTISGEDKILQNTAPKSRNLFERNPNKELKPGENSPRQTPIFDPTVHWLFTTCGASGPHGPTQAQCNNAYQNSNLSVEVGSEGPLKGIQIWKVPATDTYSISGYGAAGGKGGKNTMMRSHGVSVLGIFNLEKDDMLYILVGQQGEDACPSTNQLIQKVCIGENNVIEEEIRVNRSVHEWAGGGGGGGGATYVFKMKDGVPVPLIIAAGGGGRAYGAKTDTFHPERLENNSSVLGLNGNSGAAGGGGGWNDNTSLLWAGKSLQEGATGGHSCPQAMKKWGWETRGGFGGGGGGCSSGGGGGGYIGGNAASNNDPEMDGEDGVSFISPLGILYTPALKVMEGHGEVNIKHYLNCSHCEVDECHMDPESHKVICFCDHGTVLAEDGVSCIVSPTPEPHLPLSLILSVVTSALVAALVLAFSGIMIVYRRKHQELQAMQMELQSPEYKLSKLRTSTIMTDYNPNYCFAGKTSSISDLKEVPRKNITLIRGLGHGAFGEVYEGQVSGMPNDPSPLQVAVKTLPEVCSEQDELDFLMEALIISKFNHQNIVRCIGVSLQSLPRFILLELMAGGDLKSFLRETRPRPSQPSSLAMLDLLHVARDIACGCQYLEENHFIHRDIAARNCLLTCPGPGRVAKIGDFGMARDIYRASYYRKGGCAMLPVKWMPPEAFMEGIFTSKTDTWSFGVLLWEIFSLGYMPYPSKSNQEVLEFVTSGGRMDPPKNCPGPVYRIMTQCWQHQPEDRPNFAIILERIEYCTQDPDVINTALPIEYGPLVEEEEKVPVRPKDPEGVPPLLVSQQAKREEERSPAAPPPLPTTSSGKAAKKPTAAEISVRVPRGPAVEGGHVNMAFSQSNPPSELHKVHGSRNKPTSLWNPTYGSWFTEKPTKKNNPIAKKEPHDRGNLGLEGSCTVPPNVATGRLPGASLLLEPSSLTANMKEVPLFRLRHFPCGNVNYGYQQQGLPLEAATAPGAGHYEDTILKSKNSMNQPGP
The test is described as follows: KinaseSeeker competition binding assay. The procedure: (§1) Compound Reno647 was profiled against the following panel of kinases at 2 μM using the KinaseSeeker™ assay: ABL1, AKT1, AKT2, AKT3, ALK, AURKA, AXL, BRAF, BTK, CDK2, CDK5, CDK7, CDK8, CSF1R, DDR1, EGFR del L747-P753 InsS, EGFR (L861Q), EGFR (G719S), EGFR, EGFR (L858R), EPHA2, EPHB2, FGFR3, FLT1/VEGFR1, FLT2/FGFR1, FLT3, FLT4/VEGFR3, GSK-3a, HER2, IGF1R, INSR, KIT, LIMK1, MET, MLK2/MAP3K10, RPS6KA5/MSK1, MUSK, p38a/MAPK12, PDGFRA, PDGFRB, PDK1, RET, RIPK2, RPS6KA1/RSK1, SRC, TEC, TESK1, TRKB, VEGFR2, and YES 1.
(§2) KinaseSeeker is a homogeneous competition binding assay where the displacement of an active site dependent probe by an inhibitor is measured by a change in luminescence signal (see FIG. 7). Luminescence readout translates into a highly sensitive and robust assay with low background and minimal interference from test compounds.
(§3) (Jester, Cox et al. 2010; Jester, Gaj et al. 2012): 10 mM stock of compound Reno647 was diluted in DMSO to a concentration of 50 μM. Prior to initiating a profiling campaign, the compound was evaluated for false positive against split-luciferase. The compound was then screened in duplicate against each of the kinases. For kinase assays, each Cfluc-Kinase was translated along with Fos-Nfluc using a cell-free system (rabbit reticulocyte lysate) at 30° C. for 90 min. A 24 μL aliquot of this lysate containing either 1 μL of DMSO (for no-inhibitor control) or compound solution in DMSO (2 LM final concentration) was incubated for 30 minutes at room temperature followed by 1 hour in the presence of a kinase specific probe. A 80 μL of luciferin assay reagent was added to each solution and luminescence was immediately measured on a luminometer.
(§4) The % Inhibition and % Activity Remaining were calculated using the following equations:
(§5) % inhibition=(ALUcontrol−ALUsample)×100
(§6) % activity=100−% inhibition.

A further test deals with T2, EPHA2 (Homo sapiens, UniProt P29317).
T2 construct: made in house; host or cells: cell-free system (rabbit reticulocyte lysate)
T2 sequence (P29317 24-976): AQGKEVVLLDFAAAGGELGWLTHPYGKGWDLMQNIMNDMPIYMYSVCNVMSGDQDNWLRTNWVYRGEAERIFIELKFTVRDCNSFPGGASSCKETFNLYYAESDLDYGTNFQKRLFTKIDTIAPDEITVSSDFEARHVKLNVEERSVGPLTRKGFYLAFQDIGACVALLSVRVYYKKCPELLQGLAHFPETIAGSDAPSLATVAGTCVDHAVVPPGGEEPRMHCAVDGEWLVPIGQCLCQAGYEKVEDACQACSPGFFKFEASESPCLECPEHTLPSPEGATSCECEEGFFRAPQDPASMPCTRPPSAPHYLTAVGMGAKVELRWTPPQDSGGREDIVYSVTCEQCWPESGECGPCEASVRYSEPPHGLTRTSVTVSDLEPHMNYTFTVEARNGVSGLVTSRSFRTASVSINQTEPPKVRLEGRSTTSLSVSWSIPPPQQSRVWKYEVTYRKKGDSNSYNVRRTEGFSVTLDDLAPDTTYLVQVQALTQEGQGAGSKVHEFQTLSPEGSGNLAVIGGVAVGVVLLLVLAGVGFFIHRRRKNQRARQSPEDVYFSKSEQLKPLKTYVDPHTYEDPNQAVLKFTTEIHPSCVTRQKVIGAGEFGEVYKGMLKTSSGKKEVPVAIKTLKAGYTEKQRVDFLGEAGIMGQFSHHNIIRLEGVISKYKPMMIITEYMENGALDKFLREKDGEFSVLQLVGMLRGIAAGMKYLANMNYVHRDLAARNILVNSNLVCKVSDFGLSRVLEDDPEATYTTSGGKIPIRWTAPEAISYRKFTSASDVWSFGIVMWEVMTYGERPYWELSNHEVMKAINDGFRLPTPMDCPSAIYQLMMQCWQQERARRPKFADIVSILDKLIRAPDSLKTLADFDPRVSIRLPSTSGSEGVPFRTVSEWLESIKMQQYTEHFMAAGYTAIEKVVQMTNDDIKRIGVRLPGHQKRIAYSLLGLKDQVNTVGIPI
The test is described as follows: KinaseSeeker competition binding assay. As for the experimental part:
as §1, §2, §3, §4, §5, §6

In a further test the target is T3, CDK2 - Cyclin E1 (Homo sapiens, UniProt P24941).
T3 construct: made in house; host or cells: cell-free system (rabbit reticulocyte lysate)
The experiment in a line: KinaseSeeker competition binding assay. As for the experimental part: as §1, §2, §3, §4, §5, §6

For the next test, the target named is T4, RET (Homo sapiens, UniProt P07949).
T4 construct: made in house; host or cells: cell-free, rabbit reticulocyte lysate
The test is described as follows: KinaseSeeker competition binding assay. As for the experimental part: as §1, §2, §3, §4, §5, §6

A further test has as its target T5, AKT1 (Homo sapiens, UniProt P31749).
T5 construct: made in house; host or cells: cell-free system (rabbit reticulocyte lysate)
The test is described as follows: KinaseSeeker competition binding assay. The procedure:
as §1, §2, §3, §4, §5, §6

For the next test, the target named is T6, FLT2 (Homo sapiens, UniProt P11362).
T6 construct: made in house; host or cells: cell-free system (rabbit reticulocyte lysate)
The experiment in a line: KinaseSeeker competition binding assay. As for the experimental part: as §1, §2, §3, §4, §5, §6

Another test deals with T7, AURKA (Homo sapiens, UniProt O14965).
T7 construct: made in house; host or cells: cell-free system (rabbit reticulocyte lysate)
The experiment in a line: KinaseSeeker competition binding assay. As for the experimental part: as §1, §2, §3, §4, §5, §6

In the next test the target is T8, LIMK1 (Homo sapiens, UniProt P53667).
T8 construct: made in house; host or cells: cell-free, rabbit reticulocyte lysate
The experiment in a line: KinaseSeeker competition binding assay. The procedure:
as §1, §2, §3, §4, §5, §6

In another test the target is T9, PDGFRB (Homo sapiens, UniProt P09619).
T9 construct: made in house; host or cells: cell-free, rabbit reticulocyte lysate
The experiment in a line: KinaseSeeker competition binding assay. As for the experimental part:
as §1, §2, §3, §4, §5, §6

Another test concerns the target T10, TRKB (Homo sapiens, UniProt Q16620).
T10 construct: made in house; host or cells: cell-free, rabbit reticulocyte lysate
The test is described as follows: KinaseSeeker competition binding assay. The procedure: as §1, §2, §3, §4, §5, §6

The next test has as its target T11, DDR1 (Homo sapiens, UniProt Q08345).
T11 construct: made in house; host or cells: cell-free system (rabbit reticulocyte lysate)
The test is described as follows: KinaseSeeker competition binding assay. The procedure:
as §1, §2, §3, §4, §5, §6

The next test deals with T12, CDK7 (Homo sapiens, UniProt P50613).
T12 construct: made in house; host or cells: cell-free system (rabbit reticulocyte lysate)
T12 sequence (P50613 whole entry): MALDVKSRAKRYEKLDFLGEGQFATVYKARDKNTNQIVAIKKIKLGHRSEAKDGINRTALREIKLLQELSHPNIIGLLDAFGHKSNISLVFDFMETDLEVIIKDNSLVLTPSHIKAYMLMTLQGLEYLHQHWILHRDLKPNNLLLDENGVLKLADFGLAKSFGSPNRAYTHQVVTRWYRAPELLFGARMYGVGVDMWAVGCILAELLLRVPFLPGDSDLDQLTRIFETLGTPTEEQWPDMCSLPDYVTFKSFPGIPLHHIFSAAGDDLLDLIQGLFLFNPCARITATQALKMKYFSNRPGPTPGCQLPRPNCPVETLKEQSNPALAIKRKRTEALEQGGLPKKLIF
The test is described as follows: KinaseSeeker competition binding assay. As for the experimental part:
as §1, §2, §3, §4, §5, §6

Another test concerns the target T13, KIT-KD (Homo sapiens, UniProt P10721).
T13 construct: KIT-KD; made in house; host or cells: cell-free, rabbit reticulocyte lysate
The experiment in a line: KinaseSeeker competition binding assay. The procedure: as §1, §2, §3, §4, §5, §6

The target of the next test is T14, AXL (Homo sapiens, UniProt P30530).
T14 construct: made in house; host or cells: cell-free system (rabbit reticulocyte lysate)
T14 sequence (P30530 26-894): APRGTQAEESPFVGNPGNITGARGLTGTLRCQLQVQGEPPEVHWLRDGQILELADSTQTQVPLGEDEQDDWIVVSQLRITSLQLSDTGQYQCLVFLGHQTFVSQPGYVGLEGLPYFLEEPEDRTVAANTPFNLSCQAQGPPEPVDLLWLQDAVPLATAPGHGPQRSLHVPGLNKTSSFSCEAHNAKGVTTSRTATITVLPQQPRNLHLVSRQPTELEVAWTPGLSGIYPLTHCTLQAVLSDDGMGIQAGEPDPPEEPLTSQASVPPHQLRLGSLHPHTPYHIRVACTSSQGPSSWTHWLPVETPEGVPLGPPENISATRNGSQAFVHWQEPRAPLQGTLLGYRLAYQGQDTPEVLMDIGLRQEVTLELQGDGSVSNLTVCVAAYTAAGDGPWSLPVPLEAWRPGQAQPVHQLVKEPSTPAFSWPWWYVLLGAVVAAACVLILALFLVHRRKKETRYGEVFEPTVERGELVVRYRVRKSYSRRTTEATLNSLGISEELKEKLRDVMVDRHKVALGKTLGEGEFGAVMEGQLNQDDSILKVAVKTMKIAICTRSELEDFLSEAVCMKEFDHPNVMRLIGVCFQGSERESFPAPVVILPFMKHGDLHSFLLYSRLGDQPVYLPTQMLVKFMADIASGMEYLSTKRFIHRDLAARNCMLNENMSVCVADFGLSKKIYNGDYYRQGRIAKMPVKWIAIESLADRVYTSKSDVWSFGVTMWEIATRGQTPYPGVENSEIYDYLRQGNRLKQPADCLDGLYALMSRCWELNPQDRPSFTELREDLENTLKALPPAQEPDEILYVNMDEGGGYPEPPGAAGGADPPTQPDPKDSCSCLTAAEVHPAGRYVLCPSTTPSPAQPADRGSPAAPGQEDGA
The test is described as follows: KinaseSeeker competition binding assay. The procedure: as §1, §2, §3, §4, §5, §6

The target of another test is T15, BTK (Homo sapiens, UniProt Q06187).
T15 construct: made in house; host or cells: cell-free system (rabbit reticulocyte lysate)
The experiment in a line: KinaseSeeker competition binding assay. The procedure: as §1, §2, §3, §4, §5, §6

T13 sequence (P10721 589-937 limits assumed): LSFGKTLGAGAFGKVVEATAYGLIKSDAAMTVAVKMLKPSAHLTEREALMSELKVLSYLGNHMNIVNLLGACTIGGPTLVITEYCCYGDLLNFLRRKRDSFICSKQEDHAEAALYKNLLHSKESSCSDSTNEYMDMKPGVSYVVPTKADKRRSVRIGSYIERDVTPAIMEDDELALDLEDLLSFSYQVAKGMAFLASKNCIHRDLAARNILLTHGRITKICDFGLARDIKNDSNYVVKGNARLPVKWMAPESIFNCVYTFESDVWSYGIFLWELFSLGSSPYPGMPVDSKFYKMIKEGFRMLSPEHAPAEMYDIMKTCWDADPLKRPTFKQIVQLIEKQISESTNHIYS
T10 sequence (Q16620 32-822): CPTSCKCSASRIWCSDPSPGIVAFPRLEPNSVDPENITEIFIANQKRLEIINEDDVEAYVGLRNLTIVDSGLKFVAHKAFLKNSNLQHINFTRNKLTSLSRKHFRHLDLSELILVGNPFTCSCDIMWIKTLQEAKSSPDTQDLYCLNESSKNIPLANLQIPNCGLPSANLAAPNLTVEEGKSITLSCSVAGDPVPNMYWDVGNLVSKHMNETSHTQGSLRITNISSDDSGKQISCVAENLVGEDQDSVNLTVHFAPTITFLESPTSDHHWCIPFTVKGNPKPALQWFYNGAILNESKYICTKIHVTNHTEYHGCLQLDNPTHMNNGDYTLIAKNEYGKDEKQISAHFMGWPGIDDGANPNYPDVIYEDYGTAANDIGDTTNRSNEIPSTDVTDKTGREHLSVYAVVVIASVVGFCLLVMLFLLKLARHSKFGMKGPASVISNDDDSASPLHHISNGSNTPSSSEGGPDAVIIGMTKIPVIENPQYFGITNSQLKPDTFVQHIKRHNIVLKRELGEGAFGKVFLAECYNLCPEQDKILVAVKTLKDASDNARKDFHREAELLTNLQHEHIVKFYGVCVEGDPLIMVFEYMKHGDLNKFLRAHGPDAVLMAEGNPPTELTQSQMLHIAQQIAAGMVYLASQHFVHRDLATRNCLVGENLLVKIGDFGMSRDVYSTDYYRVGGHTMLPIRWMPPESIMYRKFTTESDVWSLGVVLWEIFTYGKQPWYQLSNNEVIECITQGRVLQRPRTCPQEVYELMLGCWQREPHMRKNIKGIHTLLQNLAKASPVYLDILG

Regarding `C#Cc1cccc(Nc2ncnc3cc(OCCOC)c(NC(=O)c4ccc(F)c([N+](=O)[O-])c4)cc23)c1` [Reno647, 4-Fluoro-N-[4-(3-ethynyl-phenylamino)-7-(2-methoxy-ethoxy)-quinazolin-6-yl]-3-nitro-benzamide], in the test with HCC827-OR16, the p21 expression entry is listed as “significant induction”. The remaining binding at 2 µM on ALK was determined as 92.1%; at EPHA2, 100%; on CDK2 - Cyclin E1, 100%; on RET, 100%; at AKT1, 96.8%; at FLT2 it was 51.7%. The remaining binding at 2 µM on AURKA is 100%; at LIMK1, 100%; on PDGFRB, 76.6%; at TRKB, 88.4%; on DDR1, around 42%; at CDK7, 95.5%. Also, the figures for the remaining binding at 2 µM at KIT-KD, at AXL and at BTK were 90%, 73.2% and 93.1%, respectively.

These data come from patent US20190169134A1, “NOVEL CLASS OF QUINOLONE HETEROCYCLIC AROMATIC MOLECULES FOR CANCER TREATMENT” (RenoTarget Therapeutics, Inc., priority 2016, published 2019).
